{"source": "patent US5563149A", "about": "“Aqueous solutions of pyridone carboxylic acids” (Cheil Foods & Chemicals, Inc., priority 1994, dated 1996)", "key": {"[1]": {"test": "Solubility of compound A in water with added acid or amino acid, and pH of the saturated solution", "format": "physicochemical", "details": "for solubility at 4 h: water, per ml of water", "experimental": "The organic acids suitable as solubilizing agents are chosen depending on the correlationship between the organic acid and the physical properties of the selected quinolone compound. Therefore, a varity of organic acids and amino acids were evaluated to determine whether certain acids are suitable as solubilizing agents capable of increasing the water solubility of compound A and the pH of the aqueous solution is suitable for injection and/or infusion solutions.\nExemplary active substance in practicing the present invention is compound A. The test method of the solubility is set forth as follows:\nCompound A was mixed with an organic acid or an amino acid in the mole ratios between 0.5 and 6 before water was added with reflux. Then, the resulting solution was rigorously shaken with stirring for 5 minutes so that it was made homogeneous. After the homogenous solution was left to stand at elevated temperature for 4 hours, it was extracted through 0.45 micro of membrane filter. The amounts of active substances present in extracts were quantified by high pressure liquid chromatography."}, "[2]": {"system": "gram-negative and gram-positive bacteria", "test": "in vitro antibacterial activity (gram-negative and gram-positive bacteria)", "format": "cell-based"}, "[3]": {"test": "bioavailability and half-life", "format": "in vivo", "details": "compared with quinolone drugs commercially available or in development"}, "[4]": {"test": "solubility in water (without solubilizing agent)", "format": "physicochemical", "details": "no acid added"}, "[5]": {"details": "with asparagine, glutamic acid or gluconic acid; Korean Patent Application Publication No. 89-2040; cited from earlier work"}}}
{"smiles": "C[C@]12C[C@@H](N)[C@H]1CN(c1nc3c(cc1F)c(=O)c(C(=O)O)cn3C1CC1)C2", "note": "(relative stereo) [compound A, 1-cyclopropyl-6-fluoro-l,4-dihydro-4-oxo-7-([1α, 5α,6β]6-amino-1-methyl-3-azabicyclo[3.2.0]heptan-3-yl)-1,8-naphtyridine-3-carboxylic acid]", "values": [{"measurement": "pH of saturated solution", "setting": "[1]; compound A with Alanine", "value": 6.4}, {"measurement": "pH of saturated solution", "setting": "[1]; compound A with Arginine", "value": 10.0}, {"measurement": "pH of saturated solution", "setting": "[1]; compound A with Asparagine", "value": 6.2}, {"measurement": "pH of saturated solution", "setting": "[1]; compound A with Aspartic acid", "value": 5.3}, {"measurement": "pH of saturated solution", "setting": "[1]; compound A with Cinnamic acid", "value": 1.8}, {"measurement": "pH of saturated solution", "setting": "[1]; compound A with Galacturonic (acid)", "value": 3.3}, {"measurement": "pH of saturated solution", "setting": "[1]; compound A with Gluconic acid", "value": 3.3}, {"measurement": "pH of saturated solution", "setting": "[1]; compound A with Gluconic acid lactone", "value": 3.6}, {"measurement": "pH of saturated solution", "setting": "[1]; compound A with Glutamine", "value": 6.4}, {"measurement": "pH of saturated solution", "setting": "[1]; compound A with Glutaric acid", "value": 3.8}, {"measurement": "pH of saturated solution", "setting": "[1]; compound A with Histidine", "value": 7.6}, {"measurement": "pH of saturated solution", "setting": "[1]; compound A with Hydrochloric acid", "value": 2.0}, {"measurement": "pH of saturated solution", "setting": "[1]; compound A with Isoleucine", "value": 6.4}, {"measurement": "pH of saturated solution", "setting": "[1]; compound A with L-cysteine", "value": 6.2}, {"measurement": "pH of saturated solution", "setting": "[1]; compound A with L-valine", "value": 6.4}, {"measurement": "pH of saturated solution", "setting": "[1]; compound A with Malic acid", "value": 3.4}, {"measurement": "pH of saturated solution", "setting": "[1]; compound A with Methionine", "value": 6.4}, {"measurement": "pH of saturated solution", "setting": "[1]; compound A with Oxalic acid", "value": 4.2}, {"measurement": "pH of saturated solution", "setting": "[1]; compound A with Succinic acid", "value": 4.0}, {"measurement": "pH of saturated solution", "setting": "[1]; compound A with Threonine", "value": 6.3}, {"measurement": "solubility at 4 h", "setting": "[1]; with Alanine", "value": 1300, "unit": "µg/mL"}, {"measurement": "solubility at 4 h", "setting": "[1]; with Arginine", "value": 8200, "unit": "µg/mL"}, {"measurement": "solubility at 4 h", "setting": "[1]; with Asparagine", "value": 2100, "unit": "µg/mL"}, {"measurement": "solubility at 4 h", "setting": "[1]; with Aspartic acid", "value": 37600, "unit": "µg/mL"}, {"measurement": "solubility at 4 h", "setting": "[1]; with Cinnamic acid", "value": 2100, "unit": "µg/mL"}, {"measurement": "solubility at 4 h", "setting": "[1]; with Galacturonic (acid)", "value": 18300, "unit": "µg/mL"}, {"measurement": "solubility at 4 h", "setting": "[1]; with Gluconic acid lactone", "value": 28100, "unit": "µg/mL"}, {"measurement": "solubility at 4 h", "setting": "[1]; with Gluconic acid", "value": 33400, "unit": "µg/mL"}, {"measurement": "solubility at 4 h", "setting": "[1]; with Glutamine", "value": 1600, "unit": "µg/mL"}, {"measurement": "solubility at 4 h", "setting": "[1]; with Glutaric acid", "value": 12100, "unit": "µg/mL"}, {"measurement": "solubility at 4 h", "setting": "[1]; with Histidine", "value": 2100, "unit": "µg/mL"}, {"measurement": "solubility at 4 h", "setting": "[1]; with Hydrochloric acid", "value": 44300, "unit": "µg/mL"}, {"measurement": "solubility at 4 h", "setting": "[1]; with Isoleucine", "value": 1400, "unit": "µg/mL"}, {"measurement": "solubility at 4 h", "setting": "[1]; with L-cysteine", "value": 2300, "unit": "µg/mL"}, {"measurement": "solubility at 4 h", "setting": "[1]; with L-valine", "value": 1300, "unit": "µg/mL"}, {"measurement": "solubility at 4 h", "setting": "[1]; with Malic acid", "value": 48700, "unit": "µg/mL"}, {"measurement": "solubility at 4 h", "setting": "[1]; with Methionine", "value": 1500, "unit": "µg/mL"}, {"measurement": "solubility at 4 h", "setting": "[1]; with Oxalic acid", "value": 3500, "unit": "µg/mL"}, {"measurement": "solubility at 4 h", "setting": "[1]; with Succinic acid", "value": 47600, "unit": "µg/mL"}, {"measurement": "solubility at 4 h", "setting": "[1]; with Threonine", "value": 1500, "unit": "µg/mL"}, {"measurement": "solubility of compound A / pH of the resulting solution (in words)", "setting": "[1]; with glutaric acid, cinnamic acid, galacturonic acid, glutamine, isoleusine, threonine, histidine, L-cysteine, alanine, arginine, L-valine, methionine or oxaline", "value": "did not substantilly improve the solubility of compound A or the pH of the resulting solution is unsuitable as injection and/or infusion solutions"}, {"measurement": "antibacterial activities compared with Lomefloxacin and Ofloxacin", "setting": "[2]", "value": "superior"}, {"measurement": "bioavailability", "setting": "[3]", "value": "better"}, {"measurement": "half-life", "setting": "[3]", "value": "better"}, {"measurement": "solubility in water", "setting": "[4]", "value": "not substantially soluble or little soluble in water"}]}
{"smiles": "CCn1cc(C(=O)O)c(=O)c2cc(F)c(N3CCNCC3)nc21", "note": "[Enoxacin]", "values": [{"measurement": "deposits in solutions", "setting": "[5]", "value": "do not lead to deposits"}]}
